What all share (type): cell-based
Experiment [1] concerns Staphylococcus aureus MSQS (methicillin sensitive and quinolone sensitive). In words: MIC, agar-dilution, Staphylococcus aureus MSQS. Particulars: inoculum 10^4 CFU/spot, 37° C., 24 hours. The method, then:
(§1) The following results were obtained on a standard in-vitro test system. The activity is described in terms of the minimum inhibitory concentration (MIC) determined by the agar-dilution technique with an inoculum size of 10^4 CFU/spot. Typically, compounds are active in the range 0.01 to 256 μg/ml.
(§2) Staphylococci were tested on agar, using an inoculum of 10^4 CFU/spot and an incubation temperature of 37° C. for 24 hours—standard test conditions for the expression of methicillin resistance.

The test system of experiment [2] is Staphylococcus aureus MRQR (methicillin resistant and quinolone resistant). The experiment can be described thus: MIC, agar-dilution, Staphylococcus aureus MRQR. As to conditions: inoculum 10^4 CFU/spot, 37° C., 24 hours. On the procedure: as §1, §2
The subject of experiment [3] is Streptococcus pneumoniae. In words: MIC, agar with 5% horse blood, Streptococcus pneumoniae. As to conditions: agar with 5% defibrinated horse blood, 10^4 CFU/spot, 37° C., 5% carbon dioxide, 48 hours. The method, then:
as §1
(§3) Streptococci and enterococci were tested on agar supplemented with 5% defibrinated horse blood, an inoculum of 10^4 CFU/spot and an incubation temperature of 37° C. in an atmosphere of 5% carbon dioxide for 48 hours—blood is required for the growth of some of the test organisms. Fastidious Gram negative organisms were tested in Mueller-Hinton broth, supplemented with hemin and NAD, grown aerobically for 24 hours at 37° C., and with an innoculum of 5×10^4 CFU/well.

For experiment [4], the system named is Streptococcus pyogenes. In words: MIC, agar with 5% horse blood, Streptococcus pyogenes. Particulars: agar with 5% defibrinated horse blood, 10^4 CFU/spot, 37° C., 5% carbon dioxide, 48 hours. The method, then: as §1, §3
Experiment [5] has as its system Haemophilus influenzae. The experiment can be described thus: MIC, Mueller-Hinton broth, Haemophilus influenzae. Particulars: Mueller-Hinton broth with hemin and NAD, aerobic, 24 hours, 37° C., 5×10^4 CFU/well. On the procedure: as §1, §3
Experiment [6] deals with Moraxella catarrhalis. In words: MIC, Mueller-Hinton broth, Moraxella catarrhalis. Particulars: Mueller-Hinton broth with hemin and NAD, aerobic, 24 hours, 37° C., 5×10^4 CFU/well. The method, then: as §1, §3

In brackets after ≈: the same amount, converted by molar mass.

For the molecule `Fc1cc(C2=NOC(Cn3ccnn3)C2)ccc1N1CCNCC1` (racemic) [Example 7, (5RS)-3-(3-Fluoro-4-piperazin-1-ylphenyl)-5-(1,2,3-triazol-1-yl-methyl)-4,5-dihydroisoxazole], the MIC worked out at 8 µg/mL (≈ 24.2 µM) in experiment [1]; 16 µg/mL (≈ 48.4 µM) in experiment [2]; 1 µg/mL (≈ 3.03 µM) in experiment [3]; 2 µg/mL (≈ 6.05 µM) in experiment [4]; 32 µg/mL (≈ 96.9 µM) in experiment [5]; 32 µg/mL (≈ 96.9 µM) in experiment [6].
